Results as given in PubChem BioAssay (NCI).
“And” between values parts separate entries of the source, which are not always exact repeats. Identical values can stand only once.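 Compound exposure: 48 hours, 5 concentrations, 96-well plates. GI50 marks 50% less growth. TGI: total growth inhibition.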

How the values were obtained:
Assay in all cases: NCI anticancer screen, dose series, 48 h
RPMI-8226 leukemia = system: RPMI-8226 leukemia
MDA-MB-435 = system: MDA-MB-435
UACC-257 melanoma = system: UACC-257 melanoma
HCC-2998 colon = system: HCC-2998 colon
HT29 colon = system: HT29 colon
BT-549 breast = system: BT-549 breast
OVCAR-3 ovarian = system: OVCAR-3 ovarian
SW-620 colon = system: SW-620 colon
M14 melanoma = system: M14 melanoma
K-562 leukemia = system: K-562 leukemia

| Structure (SMILES) | TGI (RPMI-8226 leukemia) [µM] | TGI (MDA-MB-435) | TGI (UACC-257 melanoma) | TGI (HCC-2998 colon) | TGI (HT29 colon) | TGI (BT-549 breast) | TGI (OVCAR-3 ovarian) | TGI (SW-620 colon) | TGI (M14 melanoma) | GI50 (RPMI-8226 leukemia) [µM] | GI50 (K-562 leukemia) [µM] | TGI (K-562 leukemia) | GI50 (MDA-MB-435) | GI50 (UACC-257 melanoma) [µM] | GI50 (HCC-2998 colon) | GI50 (HT29 colon) | GI50 (BT-549 breast) | GI50 (OVCAR-3 ovarian) | GI50 (SW-620 colon) | GI50 (M14 melanoma) |
| --- | --- | --- | --- | --- | --- | --- | --- | --- | --- | --- | --- | --- | --- | --- | --- | --- | --- | --- | --- | --- |
| CCNc1ccc2c(c1)C(=O)N(OS(C)(=O)=O)C2=O | 87.3 | > 100 µM | > 100 µM | > 100 µM | > 100 µM | > 100 µM | > 100 µM | > 100 µM | > 100 µM | – | – | – | – | – | – | – | – | – | – | – |
| CCOc1ccc2cc(-c3nn(CC4CCN(C)CC4)c4ncnc(N)c34)ccc2c1 | 30.5 | 24.7 µM | 30.2 µM | 32 µM | 27.3 µM | 29 µM | 39.7 µM | 31.7 µM | 32.5 µM | 10.3 | 11.6 | 27.7 µM | 12.2 µM | 14.7 | 17.1 µM | 7.01 µM | 13.6 µM | 16.2 µM | 15.7 µM | 15.8 µM |
| C/C(=N\NC(=S)N1CCCC1)c1ccccn1 | 15.6 | 21.8 µM | 0.166 µM | 13.9 µM | 17.8 µM | 14.9 µM | 12.1 µM | 16.8 µM | 4.06 µM | < 0.01 | < 0.01 | > 55.9 µM | 0.0299 µM | < 0.01 | 0.132 µM | < 0.01 µM | 0.018 µM | < 0.01 µM | < 0.01 µM | < 0.01 µM |
| Cc1c(-c2ccc(-c3ccccc3F)cc2)nc2ccc(F)cc2c1C(=O)O | – | 101 µM and 128 µM | 155 µM and 236 µM | 115 µM and 129 µM | 142 µM and 235 µM | 137 µM and 849 µM | 27.5 µM and 91.6 µM and 139 µM | 139 µM and 577 µM | 111 µM and 219 µM | 0.811 | – | 211 µM and 401 µM | 1.28 µM and 0.371 µM and 2.48 µM | – | 19.7 µM and 55.9 µM | 0.639 µM and 0.5 µM | 17.4 µM and 57.4 µM | 10.1 µM and 23 µM | 0.488 µM and 1.16 µM | 6.76 µM and 24.4 µM |
| COc1cc(N)c(Cl)cc1C(=O)N[C@@H]1CCN(CCCOc2ccc(F)cc2)C[C@@H]1OC | – | > 100 µM | – | > 100 µM | > 100 µM | > 100 µM | > 100 µM | > 100 µM | 88.8 µM | – | 26.3 | 74.1 µM | > 100 µM | – | 35.2 µM | 20.5 µM | 34.9 µM | > 100 µM | > 100 µM | 27.4 µM |
| Cc1cc(C)nc(NC(=O)COc2ccc(Cl)cc2)c1 | > 100 | > 100 µM | > 100 µM | – | > 100 µM | > 100 µM | > 100 µM | > 100 µM | > 100 µM | – | – | > 100 µM | – | – | – | – | – | – | – | – |
| CN(CCOc1ccc(NS(C)(=O)=O)cc1)CCc1ccc(NS(C)(=O)=O)cc1 | > 100 | > 100 µM | – | > 100 µM | > 100 µM | > 100 µM | > 100 µM | > 100 µM | > 100 µM | > 100 | > 100 | > 100 µM | > 100 µM | – | > 100 µM | > 100 µM | > 100 µM | > 100 µM | > 100 µM | > 100 µM |
| OC[C@H]1N[C@H](CO)[C@@H](O)[C@H]1O | > 100 | > 100 µM | > 100 µM | > 100 µM | > 100 µM | > 100 µM | – | > 100 µM | > 100 µM | – | – | > 100 µM | – | – | – | – | – | – | – | – |
